We go through 12 compounds from patent US9943519B2, “Pharmaceutical compounds” (F.HOFFMANN-LA ROCHE AG, priority 2006, dated 2018).

The structures appear in SMILES notation.

The target in series [1] is human PI3K isoform delta (p110 delta) (Homo sapiens, UniProt O00329). Put plainly: p110 isoform selectivity scintillation proximity assay (delta). The following applies: ratio of IC50 values, SPA, purified human PI3K isoforms. It is filed as biochemical. Here is the method:
(§1) Binding of compounds of the invention from above Tables 1a and 1b to purified preparations of p110 isoforms alpha, beta, delta, and gamma was measured by a Scintillation Proximity Assay (SPA) to determine binding activity (IC50 μMol) and selectivity of binding of beta, delta, and gamma isoforms relative to alpha (Example 8). These values are expressed in Table 2.
(§2) The ability of representative compounds from Tables 1a and 1b to inhibit the lipid kinase activity of purified preparations of human PI3K isoforms alpha, beta, delta, and gamma was determined by a radiometric scintillation proximity assay (SPA, GE Healthcare, Amersham Biosciences). Concentration dependent inhibition at 50% (IC50 μMol) was determined for all four isoforms […] and fold potency over beta, delta, and gamma relative to alpha was calculated for a selection of compounds in Table 2. Each compound has a p110 alpha IC50<1 μMol.
Background: In a scintillation proximity assay essentially only radioactivity close to the scintillant gives light.

Series [2] concerns the target human PI3K isoform gamma (p110 gamma) (Homo sapiens, UniProt P48736). Briefly: p110 isoform selectivity scintillation proximity assay (gamma). It is filed as biochemical. The following applies: ratio of IC50 values, SPA, purified human PI3K isoforms. Here is the method:
as §1, §2

The target in series [3] is human PI3K isoform beta (p110 beta) (Homo sapiens, UniProt P42338). Briefly: p110 isoform selectivity scintillation proximity assay (beta). It counts as biochemical. To be noted: ratio of IC50 values, SPA, purified human PI3K isoforms. Here is the method:
as §1, §2

A further series has as its system Caco-2 cells. Briefly: Caco-2 permeability. It is filed as in vitro ADME. To be noted: bidirectional Caco-2 assay. Here is the method:
Caco-2 cells were seeded onto Millipore Multiscreen plates at 1×10^5 cells/cm^2, and were cultured for 20 days. Assessment of compound permeability was subsequently conducted. The compounds were applied to the apical surface (A) of cell monolayers and compound permeation into the basolateral (B) compartment was measured. This was performed in the reverse direction (B−A) to investigate active transport. A permeability coefficient value, Papp, for each compound, a measure of the rate of permeation of the compound across the membrane, was calculated. Compounds were grouped into low (Papp</=[…]) or high (Papp>/=[…]) absorption potential based on comparison with control compounds with established human absorption.
For assessment of a compound's ability to undergo active efflux, the ratio of basolateral (B) to apical (A) transport compared with A to B was determined. Values of B−A/A−B>/=1.0 indicated the occurrence of active cellular efflux. All of the compounds tested through the Caco-2 permeability screen had Papp values >/=[…].
On the technique in general: Caco-2 monolayers are a common model of the intestinal barrier.

Sequence of human PI3K isoform gamma (p110 gamma) (P48736 whole entry, canonical isoform): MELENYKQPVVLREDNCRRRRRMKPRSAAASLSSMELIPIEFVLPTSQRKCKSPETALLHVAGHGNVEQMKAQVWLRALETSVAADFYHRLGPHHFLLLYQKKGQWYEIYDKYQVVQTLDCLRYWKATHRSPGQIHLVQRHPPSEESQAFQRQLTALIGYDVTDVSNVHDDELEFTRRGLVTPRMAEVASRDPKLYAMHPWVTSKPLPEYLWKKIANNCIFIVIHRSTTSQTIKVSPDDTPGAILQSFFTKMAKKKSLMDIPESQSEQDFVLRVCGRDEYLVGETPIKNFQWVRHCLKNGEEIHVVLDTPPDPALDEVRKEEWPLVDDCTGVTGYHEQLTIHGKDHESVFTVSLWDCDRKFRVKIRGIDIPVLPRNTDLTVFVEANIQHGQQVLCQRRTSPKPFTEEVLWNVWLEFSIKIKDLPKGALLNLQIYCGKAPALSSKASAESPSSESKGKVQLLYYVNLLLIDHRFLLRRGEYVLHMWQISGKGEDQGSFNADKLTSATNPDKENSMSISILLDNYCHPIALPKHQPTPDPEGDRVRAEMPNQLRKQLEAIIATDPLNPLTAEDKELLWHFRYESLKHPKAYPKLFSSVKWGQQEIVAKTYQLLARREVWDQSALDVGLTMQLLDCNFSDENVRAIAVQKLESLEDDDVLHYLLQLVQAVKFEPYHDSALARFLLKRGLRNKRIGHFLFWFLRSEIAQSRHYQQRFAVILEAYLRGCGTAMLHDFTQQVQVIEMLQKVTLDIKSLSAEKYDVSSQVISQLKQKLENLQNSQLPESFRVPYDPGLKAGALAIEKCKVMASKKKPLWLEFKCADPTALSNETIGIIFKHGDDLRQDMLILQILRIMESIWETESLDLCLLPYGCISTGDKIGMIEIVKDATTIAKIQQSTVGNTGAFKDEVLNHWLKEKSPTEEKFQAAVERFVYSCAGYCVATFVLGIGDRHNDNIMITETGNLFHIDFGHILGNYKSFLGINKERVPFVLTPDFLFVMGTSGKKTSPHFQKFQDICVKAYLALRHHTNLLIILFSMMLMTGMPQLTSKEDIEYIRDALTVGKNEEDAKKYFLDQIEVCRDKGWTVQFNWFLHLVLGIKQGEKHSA
Sequence of human PI3K isoform beta (p110 beta) (P42338 whole entry, canonical isoform): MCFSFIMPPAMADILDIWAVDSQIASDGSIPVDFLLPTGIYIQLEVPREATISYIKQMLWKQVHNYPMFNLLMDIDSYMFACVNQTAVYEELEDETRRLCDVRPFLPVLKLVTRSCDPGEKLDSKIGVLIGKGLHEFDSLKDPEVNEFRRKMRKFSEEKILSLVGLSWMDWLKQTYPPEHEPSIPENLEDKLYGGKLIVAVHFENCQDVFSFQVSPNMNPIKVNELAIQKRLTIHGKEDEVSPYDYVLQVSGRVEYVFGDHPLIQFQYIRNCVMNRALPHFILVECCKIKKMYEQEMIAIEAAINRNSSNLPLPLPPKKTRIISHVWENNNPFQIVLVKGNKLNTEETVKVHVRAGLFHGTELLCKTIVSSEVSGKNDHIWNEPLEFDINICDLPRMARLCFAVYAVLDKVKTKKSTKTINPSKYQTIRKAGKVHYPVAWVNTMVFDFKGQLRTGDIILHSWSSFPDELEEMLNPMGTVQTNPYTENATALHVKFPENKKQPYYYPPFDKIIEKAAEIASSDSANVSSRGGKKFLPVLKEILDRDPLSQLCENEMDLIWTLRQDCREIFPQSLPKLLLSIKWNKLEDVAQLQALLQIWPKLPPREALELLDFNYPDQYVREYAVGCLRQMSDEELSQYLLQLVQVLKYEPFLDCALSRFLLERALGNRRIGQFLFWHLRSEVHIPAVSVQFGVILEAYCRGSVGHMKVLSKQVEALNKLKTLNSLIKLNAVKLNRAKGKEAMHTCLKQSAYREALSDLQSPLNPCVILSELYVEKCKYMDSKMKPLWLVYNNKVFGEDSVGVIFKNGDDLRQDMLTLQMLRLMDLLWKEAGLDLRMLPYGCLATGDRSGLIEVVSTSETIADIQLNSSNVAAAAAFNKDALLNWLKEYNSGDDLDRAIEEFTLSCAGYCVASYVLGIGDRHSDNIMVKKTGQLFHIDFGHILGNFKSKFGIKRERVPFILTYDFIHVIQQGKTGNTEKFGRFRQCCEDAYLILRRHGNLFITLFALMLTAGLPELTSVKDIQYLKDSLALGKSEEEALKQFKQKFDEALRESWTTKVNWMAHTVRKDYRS
Sequence of human PI3K isoform beta (p110 beta) (P27986 whole entry partner, canonical isoform): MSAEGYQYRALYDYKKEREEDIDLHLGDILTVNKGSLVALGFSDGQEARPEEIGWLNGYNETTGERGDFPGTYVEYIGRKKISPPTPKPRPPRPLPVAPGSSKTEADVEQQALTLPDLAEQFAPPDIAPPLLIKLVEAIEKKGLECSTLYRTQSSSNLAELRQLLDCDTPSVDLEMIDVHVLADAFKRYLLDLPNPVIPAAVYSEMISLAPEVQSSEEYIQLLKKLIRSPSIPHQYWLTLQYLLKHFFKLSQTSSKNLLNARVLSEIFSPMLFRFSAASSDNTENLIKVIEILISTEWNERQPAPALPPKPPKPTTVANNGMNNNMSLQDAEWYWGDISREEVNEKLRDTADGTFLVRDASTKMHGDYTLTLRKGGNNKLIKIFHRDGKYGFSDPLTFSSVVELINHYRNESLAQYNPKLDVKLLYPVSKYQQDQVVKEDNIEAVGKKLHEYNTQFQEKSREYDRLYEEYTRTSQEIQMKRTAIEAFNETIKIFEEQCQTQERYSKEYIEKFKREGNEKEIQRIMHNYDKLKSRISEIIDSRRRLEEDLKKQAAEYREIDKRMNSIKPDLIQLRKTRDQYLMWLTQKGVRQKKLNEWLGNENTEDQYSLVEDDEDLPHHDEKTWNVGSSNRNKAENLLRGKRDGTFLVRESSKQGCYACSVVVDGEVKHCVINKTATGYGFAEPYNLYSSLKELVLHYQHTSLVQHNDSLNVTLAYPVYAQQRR
Sequence of human PI3K isoform delta (p110 delta) (O00329 whole entry, canonical isoform): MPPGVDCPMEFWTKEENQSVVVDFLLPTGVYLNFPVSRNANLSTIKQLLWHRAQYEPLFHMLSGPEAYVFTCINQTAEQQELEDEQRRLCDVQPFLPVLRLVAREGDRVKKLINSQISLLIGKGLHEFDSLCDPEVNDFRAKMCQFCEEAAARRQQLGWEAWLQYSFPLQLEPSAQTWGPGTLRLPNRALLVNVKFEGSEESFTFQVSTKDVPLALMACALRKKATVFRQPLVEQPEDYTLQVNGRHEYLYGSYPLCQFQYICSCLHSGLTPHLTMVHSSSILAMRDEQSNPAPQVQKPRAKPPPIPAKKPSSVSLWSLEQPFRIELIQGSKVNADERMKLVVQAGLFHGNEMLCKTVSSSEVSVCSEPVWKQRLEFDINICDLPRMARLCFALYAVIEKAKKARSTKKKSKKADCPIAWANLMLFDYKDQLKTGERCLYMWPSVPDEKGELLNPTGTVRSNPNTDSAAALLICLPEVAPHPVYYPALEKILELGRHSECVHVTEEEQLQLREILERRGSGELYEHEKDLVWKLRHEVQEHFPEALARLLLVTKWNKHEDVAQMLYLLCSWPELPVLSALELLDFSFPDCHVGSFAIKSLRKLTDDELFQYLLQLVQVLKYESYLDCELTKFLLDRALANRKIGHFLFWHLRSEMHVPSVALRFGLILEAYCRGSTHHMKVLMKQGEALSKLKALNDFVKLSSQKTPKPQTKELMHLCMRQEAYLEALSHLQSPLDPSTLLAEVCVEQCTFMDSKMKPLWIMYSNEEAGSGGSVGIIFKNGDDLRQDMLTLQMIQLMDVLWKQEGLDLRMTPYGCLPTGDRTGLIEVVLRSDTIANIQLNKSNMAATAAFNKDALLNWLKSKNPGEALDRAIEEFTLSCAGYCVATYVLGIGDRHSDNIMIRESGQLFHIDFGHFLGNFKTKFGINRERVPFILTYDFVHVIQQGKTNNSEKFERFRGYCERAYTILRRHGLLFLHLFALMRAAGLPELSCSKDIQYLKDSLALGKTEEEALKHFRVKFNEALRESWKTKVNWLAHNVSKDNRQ
Sequence of human PI3K isoform delta (p110 delta) (P27986 whole entry partner, canonical isoform): as the sequence (P27986 whole entry partner, canonical isoform) above

With `CS(=O)(=O)N1CCN(Cc2cc3nc(-c4cncc5ccccc45)nc(N4CCOCC4)c3s2)CC1` [Compound 90, 4-[6-(4-Methanesulfonyl-piperazin-1-ylmethyl)-4-morpholin-4-yl-thieno[3,2-d]pyrimidin-2-yl]-isoquinoline], the “alpha/delta (fold potency over delta relative to alpha)” value in series [1] is on record as <10 fold. Further, the “alpha/gamma (fold potency over gamma relative to alpha)” value in series [2] is >10 fold. Moreover, the “alpha/beta (fold potency over beta relative to alpha)” value in series [3] is recorded as >10 fold.
On to `CS(=O)(=O)N1CCN(Cc2cc3c(N4CCOCC4)nc(-c4cncc5ccccc45)nc3s2)CC1` [Compound 94, 4-[6-(4-Methanesulfonyl-piperazin-1-ylmethyl)-4-morpholin-4-yl-thieno[2,3-d]pyrimidin-2-yl]-isoquinoline], for which, in series [1], the “alpha/delta (fold potency over delta relative to alpha)” value was <10 fold. Moreover, the “alpha/gamma (fold potency over gamma relative to alpha)” value in series [2] is >10 fold. For the same compound, in series [3], the “alpha/beta (fold potency over beta relative to alpha)” value is >10 fold.
Take `CS(=O)(=O)N1CCN(Cc2cc3c(N4CCOCC4)nc(-c4cnc5ccccc5c4)nc3s2)CC1` [Compound 95, 3-[6-(4-Methanesulfonyl-piperazin-1-ylmethyl)-4-morpholin-4-yl-thieno[2,3-d]pyrimidin-2-yl]-quinoline]: the “alpha/delta (fold potency over delta relative to alpha)” value in series [1] is recorded as >10 fold. The “alpha/gamma (fold potency over gamma relative to alpha)” value in series [2] is recorded as >10 fold. In addition, in series [3], the “alpha/beta (fold potency over beta relative to alpha)” value is >10 fold.
As for `CS(=O)(=O)N1CCN(Cc2cc3nc(-c4cnc5[nH]ccc5c4)nc(N4CCOCC4)c3s2)CC1` [Compound 133, 6-((4-methylsulfonylpiperazin-1-yl)methyl)-4-morpholino-2-(1H-pyrrolo[2,3-b]pyridin-5-yl)thieno[3,2-d]pyrimidine], the “alpha/delta (fold potency over delta relative to alpha)” value in series [1] is <10 fold. In addition, the “alpha/gamma (fold potency over gamma relative to alpha)” value in series [2] was >10 fold. For the same compound, the “alpha/beta (fold potency over beta relative to alpha)” value in series [3] is listed as >10 fold.
For `CS(=O)(=O)N1CCN(Cc2cc3nc(-c4cccc5[nH]cnc45)nc(N4CCOCC4)c3s2)CC1` [Compound 139], the “alpha/delta (fold potency over delta relative to alpha)” value in series [1] was <10 fold. Moreover, in series [2], the “alpha/gamma (fold potency over gamma relative to alpha)” value is given as <10 fold. Moreover, in series [3], the “alpha/beta (fold potency over beta relative to alpha)” value is reported as <10 fold.
As for `CS(=O)(=O)N1CCN(Cc2cc3c(N4CCOCC4)nc(-c4cnc5[nH]ccc5c4)nc3s2)CC1` [Compound 140], the “alpha/delta (fold potency over delta relative to alpha)” value in series [1] is >10 fold. For the same compound, the “alpha/gamma (fold potency over gamma relative to alpha)” value in series [2] is listed as >10 fold. In series [3], the “alpha/beta (fold potency over beta relative to alpha)” value was >10 fold.
For the compound `CS(=O)(=O)N1CCN(Cc2cc3c(N4CCOCC4)nc(-c4cccc5[nH]ncc45)nc3o2)CC1` [Compound 141, 2-(1H-indazol-4-yl)-6-((4-methylsulfonylpiperazin-1-yl)methyl)-4-morpholinofuro[2,3-d]pyrimidine], the “alpha/delta (fold potency over delta relative to alpha)” value in series [1] is on record as <10 fold. Also, the “alpha/gamma (fold potency over gamma relative to alpha)” value in series [2] is given as >10 fold. For the same compound, in series [3], the “alpha/beta (fold potency over beta relative to alpha)” value is recorded as <10 fold.
`CS(=O)(=O)N1CCN(Cc2cc3nc(-c4cnc5[nH]ccc5c4)nc(N4CCOCC4)c3o2)CC1` [Compound 142]: in series [1], the “alpha/delta (fold potency over delta relative to alpha)” value is recorded as <10 fold. Further, the “alpha/gamma (fold potency over gamma relative to alpha)” value in series [2] was >10 fold. In addition, the “alpha/beta (fold potency over beta relative to alpha)” value in series [3] is given as >10 fold.
Take `CS(=O)(=O)N1CCN(Cc2cc3nc(-c4cnc5[nH]cnc5c4)nc(N4CCOCC4)c3s2)CC1` [Compound 144]: the “alpha/delta (fold potency over delta relative to alpha)” value in series [1] is given as <10 fold. Moreover, in series [2], the “alpha/gamma (fold potency over gamma relative to alpha)” value is given as >10 fold. The “alpha/beta (fold potency over beta relative to alpha)” value in series [3] is given as <10 fold.
With `CS(=O)(=O)N1CCN(Cc2cc3c(N4CCOCC4)nc(-c4cnc5[nH]cnc5c4)nc3s2)CC1` [Compound 147], the “alpha/delta (fold potency over delta relative to alpha)” value in series [1] is >10 fold. Further, in series [2], the “alpha/gamma (fold potency over gamma relative to alpha)” value is >10 fold. The “alpha/beta (fold potency over beta relative to alpha)” value in series [3] is reported as >10 fold.
For `Cc1nc2cc(-c3nc(N4CCOCC4)c4sc(CN5CCN(S(C)(=O)=O)CC5)cc4n3)ccc2[nH]1` [Compound 157, 6-(4-Methanesulfonyl-piperazin-1-ylmethyl)-2-(2-methyl-1H-benzoimidazol-5-yl)-4-morpholin-4-yl-thieno[3,2-d]pyrimidine], the “alpha/delta (fold potency over delta relative to alpha)” value in series [1] is recorded as <10 fold. For the same compound, the “alpha/gamma (fold potency over gamma relative to alpha)” value in series [2] is >10 fold. The “alpha/beta (fold potency over beta relative to alpha)” value in series [3] is on record as >10 fold.
For the compound `CN1CCN(Cc2cc3nc(-c4cccc(O)c4)nc(N4CCOCC4)c3s2)CC1` [PI540], the “B−A/A−B asymmetry index” value in the series on Caco-2 cells was “less than 1.0”.
